Legend:
grass or lawns = test: Action on grass or lawns (Example 13); type: in vivo; details: for First cutting, dry substance / First cutting, growth height: 19 days after treatment; for First cutting, dry substance relative / First cutting, growth height relative: control 100; for Observations (color): control normal green
From the text: Lawn seed of the standard mixture Agrostis tenius (10%), Cynosurus cristatus (10%), Festuca rubra (15%), Lolium perenne (35%) and Poa praetensis (30%) was sown in a loam in large pots. The soil was fertilized with 1.5 g N as ammonium nitrate and 1 g P2 O5 as secondary potassium phosphate. After the grass had been cut twice, it was sprayed in conventional manner at a height of 4 cm with the active ingredients at various application rates. 19 days after treatment the growth height and dry substance content were determined. The treated grass was much shorter than the control, and produced a correspondingly lower amount of dry substance.
The prior art compound used for comparison purposes was maleic hydrazide (M; German 815,192).

soybeans = test: Soybeans in a vegetation experiment in sandy loam (Example 19); type: in vivo, soybean (Gieso variety); details: for Growth height: soil, 4 weeks; for response vs control in vivo at 3000 g/ha / response vs control in vivo at 6000 g/ha: Glycine max, 672 h, control 100, read-out: Growth height relative
Procedure: Soybean plants of the Gieso variety were grown in a neutral sandy loam. Fertilization took place at the time of sowing, with 0.5 g N as ammonium nitrate and 1.0 g P2 O5 as secondary potassium phosphate. […]
After 4 weeks, the treated plants were much shorter than the control, and looked more compact as a result of the different angle of the leaves. The prior art compound used for comparison purposes was 2,3,5-triiodobenzoic acid (T; U.S. Pat. No. 2,978,838).

Cynodon dactylon = test: Growth-regulating action, postemergence, greenhouse (Example 35, Table 1); type: in vivo; details: for growth height relative: control 100
From the text: (§1) The vessels used for the experiments were plastic pots having a volume of 1,130 cm^3 (Table A) or paraffined paper cups having a volume of 170 cm^3 (Table B). The pots and cups were filled with a sandy loam. The seeds of the test plants-separated by species-were sown shallow. Preemergence treatment (soil treatment) was effected immediately after sowing and before germination of the seeds. Seeds lying on the surface came into contact with the active ingredients. Postemergence treatment (leaf treatment) took place at an average growth height of the plants (depending on the rate of growth) of from 6 to 10 cm. The substances were suspended, emulsified or dissolved in water as diluent and applied by means of fine nozzles. The vessels were kept in the greenhouse in a temperature range of 12° C. to 25° C., and were regularly sprinkler irrigated for the duration of the experiment. The observation period was 6 to 8 weeks.
(§2) Further experiments were carried out in the greenhouse under the condition described in Example 11. […] As the plants which were examined liked the warmth (Eupghorbia geniculate, Arachis hypogaea, Cynodon dactylon), they were kept at from 20°-30° C. Cynodon dactylon from seed was cut once and the young growth treated postemergence.

Arachis hypogaea = test: as above; type: in vivo; details: for growth height relative: control 100
From the text: as §1, §2

For `Clc1ccc(N2N=NC3C4CC(C5N=NC45)C32)cc1` (centres unmarked) [drawing 378], the “First cutting, dry substance” value (grass or lawns; 0.25 kg/ha) was 10.7 g, the “First cutting, growth height” value (grass or lawns; 0.25 kg/ha) was 26.0 cm and the “First cutting, dry substance relative” value (grass or lawns; 0.25 kg/ha) was 85.6. The “First cutting, growth height relative” value (grass or lawns; 0.25 kg/ha) was 101.9, the “Observations (color)” value (grass or lawns; 0.25 kg/ha) was “normal green” and the “First cutting, dry substance” value (grass or lawns; 0.5 kg/ha) was 8.6 g. The “First cutting, growth height” value (grass or lawns; 0.5 kg/ha) was 24.0 cm, the “First cutting, dry substance relative” value (grass or lawns; 0.5 kg/ha) was 68.8 and the “First cutting, growth height relative” value (grass or lawns; 0.5 kg/ha) was 94.1. The “Observations (color)” value (grass or lawns; 0.5 kg/ha) was “normal green”, the “First cutting, dry substance” value (grass or lawns; 1.0 kg/ha) was 7.0 g and the “First cutting, growth height” value (grass or lawns; 1.0 kg/ha) was 19.0 cm. The “First cutting, dry substance relative” value (grass or lawns; 1.0 kg/ha) was 56.0, the “First cutting, growth height relative” value (grass or lawns; 1.0 kg/ha) was 74.5 and the “Observations (color)” value (grass or lawns; 1.0 kg/ha) was “normal green”. For the same molecule, the “First cutting, dry substance” value (grass or lawns; 2.0 kg/ha) was 4.8 g, the “First cutting, growth height” value (grass or lawns; 2.0 kg/ha) was 16.0 cm and the “First cutting, dry substance relative” value (grass or lawns; 2.0 kg/ha) was 38.4. For the same molecule, the “First cutting, growth height relative” value (grass or lawns; 2.0 kg/ha) was 62.7, the “Observations (color)” value (grass or lawns; 2.0 kg/ha) was “dark green” and the “First cutting, dry substance” value (grass or lawns; 4.0 kg/ha) was 3.1 g. For the same molecule, the “First cutting, growth height” value (grass or lawns; 4.0 kg/ha) was 10.5 cm, the “First cutting, dry substance relative” value (grass or lawns; 4.0 kg/ha) was 24.8 and the “First cutting, growth height relative” value (grass or lawns; 4.0 kg/ha) was 41.1. For the same molecule, the “Observations (color)” value (grass or lawns; 4.0 kg/ha) was “dark green”.
`Clc1ccc(N2N=NC3C4CC(C5NNC45)C32)cc1` (centres unmarked) [drawing 395] was tested, and the Growth height (soybeans; 3.0 kg/ha) was 13.5 cm, the Growth height (soybeans; 6.0 kg/ha) was 12.5 cm and the response vs control in vivo at 3000 g/ha (soybeans; 3.0 kg/ha) was 58.7%. The response vs control in vivo at 6000 g/ha (soybeans; 6.0 kg/ha) was 54.4%.
For `Clc1cccc(N2N=NC3C4CC(C5N=NC45)C32)c1` (centres unmarked) [drawing 394], the Growth height (soybeans; 3.0 kg/ha) was 17.5 cm, the Growth height (soybeans; 6.0 kg/ha) was 14.5 cm and the response vs control in vivo at 3000 g/ha (soybeans; 3.0 kg/ha) was 76.1%. It also gave a response vs control in vivo at 6000 g/ha (soybeans; 6.0 kg/ha) of 63%.
`c1cc2sncc2cc1N1C2C3CC(C4N=NC34)C21` (centres unmarked) gave a Growth height (Cynodon dactylon; 0.5 kg/ha) of 4 cm, a growth height relative (Cynodon dactylon; 0.5 kg/ha) of 36 and a Growth height (Cynodon dactylon; 1.0 kg/ha) of 4 cm. The growth height relative (Cynodon dactylon; 1.0 kg/ha) was 36, the Growth height (Cynodon dactylon; 2.0 kg/ha) was 4 cm and the growth height relative (Cynodon dactylon; 2.0 kg/ha) was 36. For the same molecule, the Growth height (Arachis hypogaea; 0.5 kg/ha) was 13 cm, the growth height relative (Arachis hypogaea; 0.5 kg/ha) was 81 and the Growth height (Arachis hypogaea; 1.0 kg/ha) was 12 cm. The growth height relative (Arachis hypogaea; 1.0 kg/ha) was 75, the Growth height (Arachis hypogaea; 2.0 kg/ha) was 9 cm and the growth height relative (Arachis hypogaea; 2.0 kg/ha) was 56.
`CN(C)NC(=O)CCC(=O)O` [drawing 437, reference compound] was tested, and the Growth height (Cynodon dactylon; 0.5 kg/ha) was 12 cm, the growth height relative (Cynodon dactylon; 0.5 kg/ha) was 109 and the Growth height (Cynodon dactylon; 1.0 kg/ha) was 12 cm. For the same molecule, the growth height relative (Cynodon dactylon; 1.0 kg/ha) was 109, the Growth height (Cynodon dactylon; 2.0 kg/ha) was 9 cm and the growth height relative (Cynodon dactylon; 2.0 kg/ha) was 82. For the same molecule, the Growth height (Arachis hypogaea; 0.25 kg/ha) was 9 cm, the growth height relative (Arachis hypogaea; 0.25 kg/ha) was 56 and the Growth height (Arachis hypogaea; 0.5 kg/ha) was 8 cm. It also gave a growth height relative (Arachis hypogaea; 0.5 kg/ha) of 50, a Growth height (Arachis hypogaea; 1.0 kg/ha) of 7 cm and a growth height relative (Arachis hypogaea; 1.0 kg/ha) of 44. It also gave a Growth height (Arachis hypogaea; 2.0 kg/ha) of 7 cm and a growth height relative (Arachis hypogaea; 2.0 kg/ha) of 44.
For `Brc1ccc(N2N=NC3C4CC(C5N=NC45)C32)cc1` (centres unmarked) [drawing 379], the “First cutting, dry substance” value (grass or lawns; 0.25 kg/ha) was 12.8 g, the “First cutting, growth height” value (grass or lawns; 0.25 kg/ha) was 25.0 cm and the “First cutting, dry substance relative” value (grass or lawns; 0.25 kg/ha) was 102.4. For the same molecule, the “First cutting, growth height relative” value (grass or lawns; 0.25 kg/ha) was 98.0, the “Observations (color)” value (grass or lawns; 0.25 kg/ha) was “normal green” and the “First cutting, dry substance” value (grass or lawns; 0.5 kg/ha) was 11.4 g. For the same molecule, the “First cutting, growth height” value (grass or lawns; 0.5 kg/ha) was 24.0 cm, the “First cutting, dry substance relative” value (grass or lawns; 0.5 kg/ha) was 91.2 and the “First cutting, growth height relative” value (grass or lawns; 0.5 kg/ha) was 94.1. The “First cutting, dry substance” value (grass or lawns; 1.0 kg/ha) was 8.4 g, the “First cutting, growth height” value (grass or lawns; 1.0 kg/ha) was 21.5 cm and the “First cutting, dry substance relative” value (grass or lawns; 1.0 kg/ha) was 67.2. The “First cutting, growth height relative” value (grass or lawns; 1.0 kg/ha) was 84.2, the “First cutting, dry substance” value (grass or lawns; 2.0 kg/ha) was 6.3 g and the “First cutting, growth height” value (grass or lawns; 2.0 kg/ha) was 18.0 cm. The “First cutting, chlorophyll content” value (grass or lawns; 2.0 kg/ha, control 1.33) was 1.40 g Ca + b/100 g TS, the “First cutting, dry substance relative” value (grass or lawns; 2.0 kg/ha) was 50.4 and the “First cutting, growth height relative” value (grass or lawns; 2.0 kg/ha) was 70.5. For the same molecule, the “First cutting, dry substance” value (grass or lawns; 4.0 kg/ha) was 4.1 g, the “First cutting, growth height” value (grass or lawns; 4.0 kg/ha) was 12.5 cm and the “First cutting, dry substance relative” value (grass or lawns; 4.0 kg/ha) was 32.8. The “First cutting, growth height relative” value (grass or lawns; 4.0 kg/ha) was 49.0.
`Brc1ccccc1N1N=NC2C3CC(C4N=NC34)C21` (centres unmarked) [drawing 398] gave a Growth height (soybeans; 3.0 kg/ha) of 21.0 cm, a Growth height (soybeans; 6.0 kg/ha) of 17.0 cm and a response vs control in vivo at 3000 g/ha (soybeans; 3.0 kg/ha) of 91.3%. For the same molecule, the response vs control in vivo at 6000 g/ha (soybeans; 6.0 kg/ha) was 73.9%.
In the case of `Clc1ccc(N2C3C4CC(C5N=NC45)C32)cc1Cl` (centres unmarked), the Growth height (Cynodon dactylon; 0.5 kg/ha) is reported as 7 cm, the growth height relative (Cynodon dactylon; 0.5 kg/ha) is reported as 64 and the Growth height (Cynodon dactylon; 1.0 kg/ha) is reported as 6 cm. It also gave a growth height relative (Cynodon dactylon; 1.0 kg/ha) of 54, a Growth height (Cynodon dactylon; 2.0 kg/ha) of 6 cm and a growth height relative (Cynodon dactylon; 2.0 kg/ha) of 54. It also gave a Growth height (Arachis hypogaea; 0.5 kg/ha) of 14 cm, a growth height relative (Arachis hypogaea; 0.5 kg/ha) of 87 and a Growth height (Arachis hypogaea; 1.0 kg/ha) of 14 cm. For the same molecule, the growth height relative (Arachis hypogaea; 1.0 kg/ha) was 87, the Growth height (Arachis hypogaea; 2.0 kg/ha) was 10 cm and the growth height relative (Arachis hypogaea; 2.0 kg/ha) was 62.
For `Clc1ccc(N2N=NC3C4CC(C5N=NC45)C32)cc1` (centres unmarked) [drawing 393], the Growth height (soybeans; 3.0 kg/ha) was 15.0 cm, the Growth height (soybeans; 6.0 kg/ha) was 14.0 cm and the response vs control in vivo at 3000 g/ha (soybeans; 3.0 kg/ha) was 65.2%. The response vs control in vivo at 6000 g/ha (soybeans; 6.0 kg/ha) was 60.9%.

From patent US4257941A, “Polycyclic nitrogen-containing compounds” (BASF Aktiengesellschaft, priority 1976, dated 1981)
